{"source": "patent US10548883B2", "about": "“Benzotriazole-derived α and β-unsaturated amide compound used as TGF-β RI inhibitor” (GENFLEET THERAPEUTICS (SHANGHAI) INC., priority 2016, dated 2020)", "key": {"TGF-βRI": {"target": "T1, TGF-βRI (Homo sapiens, UniProt P36897)", "T1 sequence (P36897 34-503)": "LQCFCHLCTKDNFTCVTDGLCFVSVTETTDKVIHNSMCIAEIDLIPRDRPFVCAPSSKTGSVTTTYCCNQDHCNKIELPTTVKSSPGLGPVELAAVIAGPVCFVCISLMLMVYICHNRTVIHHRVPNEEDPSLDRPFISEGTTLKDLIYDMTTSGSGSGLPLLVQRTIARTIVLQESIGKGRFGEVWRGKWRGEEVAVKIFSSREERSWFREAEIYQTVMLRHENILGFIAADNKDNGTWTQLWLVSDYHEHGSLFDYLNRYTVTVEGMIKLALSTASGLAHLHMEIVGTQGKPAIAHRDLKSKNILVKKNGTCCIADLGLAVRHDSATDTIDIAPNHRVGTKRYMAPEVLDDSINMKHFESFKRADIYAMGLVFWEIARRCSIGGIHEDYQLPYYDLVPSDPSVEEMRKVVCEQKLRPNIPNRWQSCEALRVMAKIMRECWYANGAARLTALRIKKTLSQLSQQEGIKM", "experiment": "Test of inhibitory activity of TGFβ-RI in vitro", "type": "biochemical", "conditions": "10 μM ATP", "procedure": "i) Test compound: the IC50 was determined by diluting into 10 gradient points with each gradient by three-fold dilution and with a starting concentration of 5 μM.\nii) The IC50 of reference compound LDN193189 was determined by diluting into 10 gradient points with each gradient by three-fold dilution and with a starting concentration of 20 μM.\niii) The reaction system contains 10 μM ATP.\niv) Calculate the IC50 value by curve fitting when the percentage of enzyme activity (compared to the solvent group) is below 65% at the highest concentration of the sample."}, "[1]": {"system": "mouse breast cancer 4T1 cells", "experiment": "Tumor cell metastasis inhibition in BALB/c mouse orthotopic transplantation model of mouse breast cancer 4T1 cells", "type": "in vivo", "conditions": "75 mg/kg PO once a day × 32", "procedure": "Fluorescently labeled mouse breast cancer 4T1-Luc cells were expanded in vitro. Before the cells were collected, the mice were anesthetized with intraperitoneal injection of sodium pentobarbital. After anesthetized mice were fixed, the abdominal skin was disinfected with 70% alcohol. 100 uL of phosphate buffer (containing 0.5×10^6 4T1-luc2 cells) was inoculated into the left side of the fourth pair of abdominal mammary fat pads in mice, and the incision was sutured to disinfect the skin. The animals are kept warm with a warm blanket, observed until they wake up and put back in their cages. 0.1 mg/kg buprenorphine for pain relief was subcutaneously injected 30 min before surgery and 6 hours after surgery.\nOn the third day after modeling, the animals were subjected to bioluminescence detection by infrared data imaging, randomly grouped according to the fluorescence values, and administered according to the following experimental protocol, see Table 5.\nTo observe the inhibitory effect of embodiment 1 on tumor growth and metastasis, the experimental endpoint was designed to be 30-35 days after administration, with reference to historical data of the model. At the end of the experiment, the in situ tumor and various organ tissues were dissected, the tumor was weighed, and the fluorescence intensity of each organ was detected by IVIS fluorescence. Growth inhibition of orthotopic tumors can be compared by the weight of the in situ tumor in the experimental endpoint, and the inhibition curve is generated from the tumor volume measurement data twice a week during the experiment. The inhibition of tumor metastasis was determined by the presence or absence of fluorescence detection of each organ and the analysis of relative fluorescence intensity.\nAt the end of the experiment, the tumor weight will be detected and the relative tumor growth rate T/C (%) will be calculated; the tumor volume is calculated as: V=0.5a×b^2, and a and b represent the long and short diameters of the tumor, respectively. At the same time, the lung, liver, spleen, kidney, intestine and left upper limb were stripped, and fluorescence was detected to determine whether there was metastasis and metastasis intensity and ratio.\nThe antitumor effect of the compound was evaluated by the tumor growth inhibition rate TGI (%) or the relative tumor growth rate T/C (%).\nCalculation of TGI (%): TGI (%)=[(1−mean tumor volume at the end of administration of a treatment group−mean tumor volume at the start of administration of the treatment group))/(mean tumor volume at the end of treatment of the solvent control group−mean tumor volume at the start of administration of the solvent control group)]×100%.\nRelative tumor growth rate T/C (%) calculation: T/C(%)=Tt(treatment group)/Ct(control group)×100%, Tt is the average tumor volume at a certain measurement, and Ct takes the same day data.\nThe experimental results were statistically analyzed using one-way ANOVA. If there is a significant difference in F values, multiple comparisons should be made after ANOVA analysis. All data in this experiment were analyzed using SPSS 17.0. A significant difference was considered at p<0.05.\nAt the end of the experiment, each organ tissue was peeled off, and fluorescence imaging and fluorescence intensity value recording were measured by IVIS for 40 sec exposure within 8 min. The fluorescence imaging results of the tested tissues of the 10 animals excised by the maximum and minimum values are shown in Table 6.\nAccording to the experimental end point, the fluorescence intensity of each group of organs was normalized by the control group, and the relative fluorescence intensity ratio of each group of organs was obtained. The ratio reflects the level of metastatic intensity on the corresponding organs."}, "[2]": {"conditions": "animals with metastasis/animals in group"}, "[3]": {"conditions": "average organ fluorescence relative to control group"}}}
{"smiles": "Cc1cccc(-c2nn3c(c2-c2ccc4ncnn4c2/C=C/C(N)=O)CCC3)n1", "note": "[Embodiment 1]", "values": [{"measurement": "IC50", "setting": "TGF-βRI", "value": "1 to 50", "unit": "nM"}, {"measurement": "Inhibition of metastasis of 4T1 (conclusion)", "setting": "[1]", "value": "significantly inhibited the metastasis of 4T1 in liver, spleen, kidney and intestine"}, {"measurement": "Metastasis rate, intestine", "setting": "[1]; [2]", "value": 60, "unit": "%"}, {"measurement": "Metastasis rate, kidney", "setting": "[1]; [2]", "value": 20, "unit": "%"}, {"measurement": "Metastasis rate, liver", "setting": "[1]; [2]", "value": 50, "unit": "%"}, {"measurement": "Metastasis rate, lung", "setting": "[1]; [2]", "value": 100, "unit": "%"}, {"measurement": "Metastasis rate, spleen", "setting": "[1]; [2]", "value": 0, "unit": "%"}, {"measurement": "Metastasis rate, upper limb", "setting": "[1]; [2]", "value": 90, "unit": "%"}, {"measurement": "Metastasis level, intestine", "setting": "[1]; [3]", "value": 1, "unit": "%"}, {"measurement": "Metastasis level, kidney", "setting": "[1]; [3]", "value": 67, "unit": "%"}, {"measurement": "Metastasis level, liver", "setting": "[1]; [3]", "value": 10, "unit": "%"}, {"measurement": "Metastasis level, lung", "setting": "[1]; [3]", "value": 9, "unit": "%"}, {"measurement": "Metastasis level, spleen", "setting": "[1]; [3]", "value": 0, "unit": "%"}, {"measurement": "Metastasis level, upper limb", "setting": "[1]; [3]", "value": 12, "unit": "%"}]}
